From publication PMC9667936, “Functional mapping of the 14-3-3 hub protein as a guide to design 14-3-3 molecular glues” (Chemical Science, 2022)
Read-outs that look alike come from different tables or passages of the source. Where a SMILES comes first, the peptide text is derived from it. [ ]: non-standard residue; d: D form. ξ: configuration not given here. Phe(4-NO2) = N[C@@H](Cc1ccc([N+](=O)[O-])cc1)C(=O)O; ξAla(4-thiazolyl) = NC(Cc1cscn1)C(=O)O; pS = N[C@@H](COP(=O)(O)O)C(=O)O; β3hS = N[C@@H](CO)CC(=O)O; Nva = CCC[C@H](N)C(=O)O; βAla = NCCC(=O)O

Target: T1, 14-3-3γ (Homo sapiens, UniProt P61981)
T1 construct: made in house; host or cells: E. coli NiCo21 (DE3)
T1 sequence (P61981 1-247): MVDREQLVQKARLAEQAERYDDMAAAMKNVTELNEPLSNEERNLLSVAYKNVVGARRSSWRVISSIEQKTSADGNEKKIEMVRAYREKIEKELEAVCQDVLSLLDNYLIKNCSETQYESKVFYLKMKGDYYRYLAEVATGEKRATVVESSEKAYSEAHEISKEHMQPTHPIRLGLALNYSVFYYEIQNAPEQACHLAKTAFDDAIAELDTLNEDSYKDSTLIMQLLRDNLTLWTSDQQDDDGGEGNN
Experiment: Isothermal titration calorimetry (ITC) of 14-3-3 binding to peptide
Conditions: for ΔG / Kd / ΔH / -TΔS: 25 °C; for Kd: Table S6 (unit as in Table S5)
Procedure: 14-3-3γ protein expression (FP/ITC experiments)
A pPROEX HTb expression vector encoding the human 14-3-3 protein gamma (14-3-3γ) with an N-terminal his6-tag was transformed by heat shock into NiCo21 (DE3) competent cells. Single colonies were cultured in 50 mL LB medium (100 µg/mL ampicillin). After overnight incubation at 37 °C, cultures were transferred to 2 L TB media (100 µg/mL ampicillin, 1 mM MgCl2) and incubated at 37 °C until an OD600 nm of 0.8-1.2 was reached. Protein expression was then induced with 0.4 mM isopropyl-β-d-thiogalactoside (IPTG), and cultures were incubated overnight at 18 °C. Cells were harvested by centrifugation (8600 rpm, 20 minutes, 4 °C) and resuspended in lysis buffer (50 mM Hepes, pH 8.0, 300 mM NaCl, 12.5 mM imidazole, 5 mM MgCl2, 2 mM βME) containing cOmplete™ EDTA-free Protease Inhibitor Cocktail tablets (1 tablet/100 ml lysate) and benzonase (1 µl/100 ml). After lysis using a C3 Emulsiflex-C3 homogenizer (Avestin), the cell lysate was cleared by centrifugation (20000 rpm, 30 minutes, 4 °C) and purified using Ni2+-affinity chromatography (Ni-NTA superflow cartridges, Qiagen).
Typically two 5 mL columns (flow 5 mL/min) were used for a 2 L culture in which the lysate was loaded on the column washed with 10 CV wash buffer (50 mM Hepes, pH 8.0, 300 mM NaCl, 25 mM imidazole, 2 mM βME) and eluted in several fractions (2-4 CV) of elution buffer (50 mM Hepes, pH 8.0, 300 mM NaCl, 250 mM imidazole, 2 mM βME). Fractions containing the 14-3-3 protein were combined and dialyzed into 25 mM HEPES pH 8.0, 100 mM NaCl, 10 mM MgCl2, 500 µM TCEP. […]
The peptides 1 and 2a-d were synthesized on 50 µmol scale on a Rink amide MBHA resin (Novabiochem, 0.52 mmol/g loading) using an automated Intavis MultiPep RSi peptide synthesizer.
Deprotection was performed twice per cycle with 20% v/v piperidine in DMF for 8 minutes. Fmoc-protected amino acids were mixed in 5 equivalents of HBTU and 9 equivalents of DIPEA in DMF, and coupled to the resin. With the exception of phosphoserine, which was coupled once for 60 minutes, all amino acids were coupled to the resin twice for 30 minutes. Capping of unreacted amino acids was performed with a mixture of acetic anhydride/pyridine/DMF (1:1:3) for 5 minutes. βAla was incorporated as a spacer between the sequence and Lys(Alloc), to which a FITC fluorophore will be coupled for fluorescence anisotropy studies.
The peptides 1 and 2e-i were synthesized manually on a 50 µmol scale using Rink amide MBHA resin (Novabiochem, 0.52 mmol/g loading) via Fmoc based solid phase peptide synthesis. […]
(lex: 485 ± 20 nm; lem: 535 ± 25 nm; mirror: Dichroic 510; flashes: 20; integration time: 50 ms; settle time:
0 ms; gain: optimal; and Z-position: calculated from well). […]
Data was obtained and averaged based on two
To determine the cooperativity parameters from the 2D-titration of 14-3-3/ChREBP/2d (as described above) we have used the general framework for straightforward model construction of multi-component thermodynamic equilibrium systems as described by Geertjens et al. (2021).10 This general platform generates a model to describe multi-component equilibrium systems when given a system description.
In our case we gave the following system description: […]
α (with 95% confidence interval) and the error-landscape of the determine parameters.
Fluorescence anisotropy (FA) – Selectivity study: Peptides representing 14-3-3 binding partners (including ChREBP) were titrated in a 2-fold dilution series (starting at 100 µM) to 20 nM of fluorescein-labeled peptide 2d in presence and absence of, respectively, 2 µM 14-3-3γ in FA buffer (10 mM HEPES pH 7.4, 150 mM NaCl, 0.1% (v/v) Tween20, 0.1% (w/v) BSA). Dilution series were made in a polystyrene (non-binding) low-volume Corning Black Round Bottom 384-well plates (Corning 4514 or 4511).
Measurements were performed directly after plate preparation, using a Tecan Infinite F500 plate reader at room temperature (lex: 485 ± 20 nm; lem: 535 ± 25 nm; mirror: Dichroic 510; flashes: 20; integration […]

[1] = Table S5, ΔG minus ΔG of peptide 1, ITC, first unlabelled line (replicate 1)
[2] = Table S5, ΔG minus ΔG of peptide 1, ITC, second unlabelled line (replicate 2)
[3] = Table S5, ΔG of peptide minus ΔG of peptide 1, ITC, mean of n = 2
[4] = ITC, average of two runs, read-out: Kd
[5] = Table S6 (unit given in Fig. 4 legend), ITC, average of two runs
[6] = Table S6, ITC, average of two runs
[7] = Table S5, ITC Kd / Kd of peptide 1, first unlabelled line (replicate 1)
[8] = Table S5, ITC Kd / Kd of peptide 1, second unlabelled line (replicate 2)

Row | Compound | ΔG (Table S5, ITC, mean of n = 2) | ΔG (Table S5, ITC, replicate 1) | ΔG (Table S5, ITC, replicate 2) | ΔΔG to 1 [1] | ΔΔG to 1 [2] | ΔΔG to 1 [3] | Kd [4] | Kd (ITC, run 1) | Kd (ITC, run 2) | ΔH [5] | -TΔS [6] | ΔG [6] | -TΔS (Table S6, ITC, run 1) | ΔG (Table S6, ITC, run 1) | ΔH (Table S6, ITC, run 1) | -TΔS (Table S6, ITC, run 2) | ΔG (Table S6, ITC, run 2) | ΔH (Table S6, ITC, run 2) | Fold change to 1 [7] | Fold change to 1 [8] | further results
1 | CCC[C@H](NC(=O)[C@H](N)CCCCN)C(=O)N[C@@H](Cc1ccc([N+](=O)[O-])cc1)C(=O)NC(Cc1cscn1)C(=O)N[C@@H](COP(=O)(O)O)C(=O)N[C@@H](Cc1ccc([N+](=O)[O-])cc1)C(=O)N[C@@H](CO)CC(=O)NCCC(=O)N[C@@H](C)C(=O)N[C@@H](CCCCN)C(N)=O (stereo partly drawn) [5c] (H-[dK][Nva][Phe(4-NO2)][ξAla(4-thiazolyl)][pS][Phe(4-NO2)][β3hS][βAla]AK-NH2; N-terminus and C-terminus assumed) | -7.4 kcal/mol | -7.4 kcal/mol | -7.3 kcal/mol | 2.6 kcal/mol | 2.7 kcal/mol | 2.6 kcal/mol | 3910 nM | 3,48E-06 M | 4,33E-06 M | -2,89 kcal mol^-1 | -4,49 kcal mol^-1 | -7,38 kcal mol^-1 | -5,204 kcal mol^-1 | -7,446 kcal mol^-1 | -2,242 kcal mol^-1 | -3,779 kcal mol^-1 | -7,317 kcal mol^-1 | -3,539 kcal mol^-1 |  |  | 
2 | CCC[C@H](NC(=O)[C@H](N)CCCCN)C(=O)N[C@@H](Cc1ccc([N+](=O)[O-])cc1)C(=O)NC(Cc1cscn1)C(=O)N[C@@H](COP(=O)(O)O)C(=O)N[C@@H](Cc1ccccc1)C(=O)N[C@@H](CO)CC(=O)NCCC(=O)N[C@@H](Cc1ccc([N+](=O)[O-])cc1)C(=O)N[C@@H](CCCCN)C(N)=O (stereo partly drawn) [4b] (H-[dK][Nva][Phe(4-NO2)][ξAla(4-thiazolyl)][pS]F[β3hS][βAla][Phe(4-NO2)]K-NH2; N-terminus and C-terminus assumed) | -10.2 kcal/mol | -10.3 kcal/mol | -10.1 kcal/mol | -0.3 kcal/mol | -0.1 kcal/mol | -0.2 kcal/mol | 31.9 nM | 2,62E-08 M | 3,76E-08 M | -7,40 kcal mol^-1 | -2,87 kcal mol^-1 | -10,24 kcal mol^-1 | -2,391 kcal mol^-1 | -10,34 kcal mol^-1 | -8,024 kcal mol^-1 | -3,345 kcal mol^-1 | -10,13 kcal mol^-1 | -6,783 kcal mol^-1 | 0.6 | 0.8 | Fold change to 1 (Table S5, ITC Kd of peptide divided by Kd of peptide 1, mean of n = 2): 0.7
3 | CCC[C@H](NC(=O)[C@H](N)CCCCN)C(=O)N[C@@H](Cc1ccc([N+](=O)[O-])cc1)C(=O)NC(Cc1cscn1)C(=O)N[C@@H](COP(=O)(O)O)C(=O)N[C@@H](Cc1ccc([N+](=O)[O-])cc1)C(=O)N[C@@H](CO)CC(=O)NCCC(=O)N[C@@H](Cc1ccccc1)C(=O)N[C@@H](CCCCN)C(N)=O (stereo partly drawn) [5b] (H-[dK][Nva][Phe(4-NO2)][ξAla(4-thiazolyl)][pS][Phe(4-NO2)][β3hS][βAla]FK-NH2; N-terminus and C-terminus assumed) | -7.9 kcal/mol | -7.9 kcal/mol | -7.8 kcal/mol | 2.1 kcal/mol | 2.2 kcal/mol | 2.1 kcal/mol | 1450 nM | 1,06E-06 M | 1,85E-06 M | -4,72 kcal mol^-1 | -3,16 kcal mol^-1 | -7,88 kcal mol^-1 | -3,227 kcal mol^-1 | -7,943 kcal mol^-1 | -4,716 kcal mol^-1 | -3,096 kcal mol^-1 | -7,821 kcal mol^-1 | -4,725 kcal mol^-1 |  |  | increase of enthalpy (ΔH) on removal of the nitro group, relative to peptide 1 (ITC, n = 2, Fig. 4c): ~6 kcal/mol
4 | CCC[C@H](NC(=O)[C@H](N)CCCCN)C(=O)N[C@@H](Cc1ccc([N+](=O)[O-])cc1)C(=O)NC(Cc1cscn1)C(=O)N[C@@H](COP(=O)(O)O)C(=O)N[C@@H](C)C(=O)N[C@@H](CO)CC(=O)NCCC(=O)N[C@@H](Cc1ccc([N+](=O)[O-])cc1)C(=O)N[C@@H](CCCCN)C(N)=O (stereo partly drawn) [4c] (H-[dK][Nva][Phe(4-NO2)][ξAla(4-thiazolyl)][pS]A[β3hS][βAla][Phe(4-NO2)]K-NH2; N-terminus and C-terminus assumed) | -8.3 kcal/mol | -8.4 kcal/mol | -8.3 kcal/mol | 1.6 kcal/mol | 1.7 kcal/mol | 1.7 kcal/mol | 764 nM | 6,72E-07 M | 8,56E-07 M | -4,81 kcal mol^-1 | -3,54 kcal mol^-1 | -8,35 kcal mol^-1 | -3,445 kcal mol^-1 | -8,421 kcal mol^-1 | -4,976 kcal mol^-1 | -3,629 kcal mol^-1 | -8,278 kcal mol^-1 | -4,649 kcal mol^-1 | 15.0 | 18.9 | ΔΔG of point mutation (ITC) (ITC, relative to 1, mean ± SD, SD): 1.7 ± 0.1 kcal/mol
